Source: publication PMC6470533, “Structure–Activity Study, Characterization, and Mechanism of Action of an Antimicrobial Peptoid D2 and Its D- and L-Peptide Analogues” (Molecules, 2019)
Converted amounts (≈) assume the structure as drawn. Non-standard residues stand in square brackets, D forms with d. Residues, ends and D or L forms follow the SMILES beside them. N(1-naphthylmethyl)Gly = O=C(O)CNCc1cccc2ccccc12; d1Nal = N[C@H](Cc1cccc2ccccc12)C(=O)O; N(4-MeBn)Gly = Cc1ccc(CNCC(=O)O)cc1; dNle = CCCC[C@@H](N)C(=O)O; NBuGly = CCCCNCC(=O)O; Nlys = NCCCCNCC(=O)O

Experiments:
[1] = test system: other selected dog pathogens; test: MIC against other selected dog pathogens; assay type: cell-based; conditions: summary of Table 4, except for P. mirabilis
Text: We screened the antimicrobial activity of D2 and the analogue D2D against a number of canine pathogens (Table 4). These included Acinetobacter baumannii, Escherichia coli, Enterococcus faecalis, and Klebsiella pneumoniae isolated from wounds, Corynebacterium auriscanis associated with canine otitis externa, the nosocomial pathogen Enterococcus faecium, the endocartitis-causing Streptococcus canis, and Proteus mirabilis
To explore the antimicrobial activity of the library of peptides and peptidomimetics, they were tested against Acinetobacter baumannii, Corynebacterium auriscanis, Escherichia coli, Enterococcus faecalis, Enterococcus faecium, Klebsiella pneumonia, Proteus mirabilis, and Pseudomonas aeruginosa. Bacteria grown on agar plates for 18 h at 37 °C were diluted to ~1 × 10^8 CFU/mL in Mueller–Hinton broth (MHB). Two-fold serial dilutions of peptides and peptidomimetics in MHB II were inoculated with bacteria to achieve a final concentration of 5 × 10^5 CFU/mL in polypropylene 96 U-well microtiter plates (Almeco, Esbjerg, Denmark), followed by incubation at 37 °C in ambient air for 18 h. The MIC values were determined as the lowest concentration showing no visible bacterial growth. Experiments were performed twice (in technical triplicates) on two different days.

[2] = test system: DNA synthesis in MRSP E104; test: Macromolecule biosynthesis assay, DNA (3H-thymidine); assay type: cell-based, Staphylococcus pseudintermedius; conditions: 0.5× MIC, 20 min incubation, MRSP E104, 3H-thymidine; means of two experiments
Description: The effect on DNA and cell wall synthesis was investigated after 20 min of incubation of MRSP E104 with the precursors ^3H-thymidine and ^3H-glucosamine hydrochloride, respectively, as previously reported by Ling et al.. Following macromolecule precipitation, radioactivity was counted using scintillation fluid. Incorporation of ^3H- or ^14C-labeled thymidine has been used to investigate DNA replication and transcriptional activity during the cell cycle; ^3H-glucosamine hydrochloride has been used in a mode of action study for the antimicrobial peptide plectasin, which targets the cell wall precursor lipid II [44].
Macromolecules (DNA and cell wall) biosynthesis rates were measured using strain MRSP E104 following a protocol adapted from Ling et al.. Briefly, overnight culture of E104 was diluted 1:100 in MHB and freshly grown up to OD 0.2 at 600 nm. Grown cells were pelleted down by centrifugation and then resuspended in fresh MHB medium followed by incubation for 20 min on a dry heat-bath with D2 or analogues or nisin and radiolabeled precursor: (50 µCi) ^3H-Thymidine (PerkinElmer) and (5 µCi) ^3H-glucosamine hydrochloride per mL for DNA and cell wall, respectively. A positive control without antimicrobials was maintained that corresponds to 100% synthesis rate. After 20 min of incubation, samples were precipitated with equal volume of cold 30% trichloroactic acid (TCA Sigma, Søborg, Denmark) on ice. After 15 to 30 min of incubation on ice, precipitates were filtered on a membrane filter and subsequently washed twice with cold 15% TCA and twice with cold water using a vacuum manifold. Next, filters were air dried overnight and then moved to 10 mL scintillation vials. Finally, 3 mL scintillation fluid was added to each vial and ^3H count was taken in Beckman Coulter LS6500 liquid scintillation counter for 1 min. The radioactive counts of the control samples with no antimicrobial exposure were considered to have 100% precursor incorporation and macromolecule synthesis. The percentage rates of macromolecule synthesis in the antimicrobial-exposed samples were calculated compared to control. Each experiment was performed twice with a technical replicate, and the average rates of synthesis were plotted.

[3] = test system: clinical MRSP strain C22963; test: Time–kill kinetics; assay type: cell-based, Staphylococcus pseudintermedius; conditions: for log reduction in time–kill: after 6 h, MRSP C22963, 10^5 CFU/mL in MHB
Description: The time–kill experiments of D2 against the methicillin-resistant S. pseudintermedius strain C22963 were performed using an in-house protocol adopted and modified from Blondeau et al.: the bacterium was grown overnight on a blood agar plate. The next day, an inoculum was transferred to MHB and incubated for 2 h at 37 °C to reach exponential growth phase. […] Aliquots were removed at 1 h intervals up to 6h and spotted in triplicate on blood agar plates, and incubated overnight at 37 °C. Colonies were counted and CFU per mL was calculated.

[4] = test system: Pseudomonas aeruginosa (ATCC 27853); assay type: cell-based; conditions: ATCC 27853, 18 h
How it was run: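 Visual growth inhibition in MHB II was scored after 18 h at 37 °C, inoculum 5 × 10^5 CFU/mL, to give the MIC.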

[5] = test system: Acinetobacter baumannii, 27065; assay type: cell-based; conditions: 27065, 18 h
[6] = test system: Enterococcus faecalis, 27404; assay type: cell-based; conditions: 27404, 18 h
[7] = test system: S. pseudintermedius isolates from canine infections; assay type: cell-based, Staphylococcus pseudintermedius; conditions: 50 isolates from canine infections
[8] = cited from earlier work
Text: We have previously described a promising antimicrobial peptoid, D2, which is active against MRSP and P. aeruginosa, resistant to plasma proteases and hepatic clearance in vitro, and is suitable for topical administration to treat superficial pyoderma. In the present study, we investigated the structural features responsible for antimicrobial activity of D2 by (a) performing Gly-scan to analyze the residues crucial for activity; (b) investigating the effects of single substitution in order to increase activity; (c) exploring the effect of the peptoid backbone by exchanging L- and D- amin ...

SMILES	MIC range against other selected dog pathogens [1]	inhibition of DNA biosynthesis rate [2]	time to killing to bacterial levels below the detection threshold ([3]; 1× MIC, MRSP C22963)	MIC PA [4]	MIC Acinetobacter baumannii [5]	MIC Enterococcus faecalis [6]	MIC range, panel of 50 S. pseudintermedius isolates [7]	log reduction in time–kill ([3]; 1× MIC)	log reduction in time–kill ([3]; 2× MIC)	resistance to hepatic clearance [8]	resistance to plasma proteases [8]
CCCC[C@@H](NC(=O)[C@@H](CCCCN)NC(=O)[C@@H](Cc1cccc2ccccc12)NC(=O)[C@@H](CCCCN)NC(=O)[C@@H](Cc1ccccc1)NC(=O)[C@@H](Cc1cccc2ccccc12)NC(=O)[C@@H](CCCCN)NC(=O)[C@H](N)CCCCN)C(N)=O [D2D] (H-[dK][dK][d1Nal][dF][dK][d1Nal][dK][dNle]-NH2)	2 to 16 µg/mL	37%	30 min	4 µg/mL (≈ 3.38 µM)	16 µg/mL (≈ 13.5 µM)	8 µg/mL (≈ 6.75 µM)					
CCCCN(CC(N)=O)C(=O)CN(CCCCN)C(=O)CN(Cc1cccc2ccccc12)C(=O)CN(CCCCN)C(=O)CN(Cc1ccc(C)cc1)C(=O)CN(Cc1cccc2ccccc12)C(=O)CN(CCCCN)C(=O)CNCCCCN [D2] (H-[Nlys][Nlys][N(1-naphthylmethyl)Gly][N(4-MeBn)Gly][Nlys][N(1-naphthylmethyl)Gly][Nlys][NBuGly]-NH2)		< 5%		16 µg/mL (≈ 13.3 µM)	>64 µg/mL	>64 µg/mL	1.56 to 3.12 µM	1.5 log	2.7 log	resistant	resistant
